Measured values as given in US8247530B2, “N-alkylated cyclic peptide melanocortin agonists” (Palatin Technologies, Inc., priority 2005, dated 2012).
Where a SMILES comes first, the peptide text is derived from it. Bridges are numbered along the chain shown (N, C = ends). [ ]: non-standard residue; d: D form. 1Nal = N[C@@H](Cc1cccc2ccccc12)C(=O)O; Nle = CCCC[C@H](N)C(=O)O

Tests used:
hMC5-R = molecular target: T1, hMC5-R (Homo sapiens, UniProt P33032); test: Competitive inhibition binding assay using [I125]-NDP-α-MSH, hMC5-R; conditions: radioligand [I125]-NDP-α-MSH, HEK-293 membranes; read-out: Ki (NDP-α-MSH) MC5-R
T1 construct: expressed in transfected cells; host or cells: HEK-293
T1 sequence (P33032 whole entry): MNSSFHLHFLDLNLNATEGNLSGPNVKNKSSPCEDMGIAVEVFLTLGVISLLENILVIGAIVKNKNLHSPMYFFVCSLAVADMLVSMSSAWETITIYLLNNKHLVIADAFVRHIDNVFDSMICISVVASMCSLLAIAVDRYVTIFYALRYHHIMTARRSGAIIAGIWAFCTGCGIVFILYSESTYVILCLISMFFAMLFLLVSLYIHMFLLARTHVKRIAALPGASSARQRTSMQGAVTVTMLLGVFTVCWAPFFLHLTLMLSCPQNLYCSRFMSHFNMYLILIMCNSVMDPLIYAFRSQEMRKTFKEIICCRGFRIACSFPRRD
Description: (§1) The assay tube also contained a chosen concentration of the test peptide of this invention, typically a 1 μM concentration, for determining its efficacy in inhibiting the binding of [I^125]NDP-α-MSH to the receptor.
(§2) The assay mixture was incubated for 60 minutes at 37° C., then filtered and the membranes washed three times with ice cold phosphate buffered saline. The filter was dried and counted in a gamma counter for remaining radioactivity bound to the membranes. 100% specific binding was defined as the difference in radioactivity (cpm) bound to cell membranes in the absence and presence of 1 μM NDP-α-MSH. […] Each assay was conducted in triplicate. The Ki (nM) of certain peptides of the invention were determined using similar assay protocols and testing peptides over a wider dose range.

hMC3-R (HEK-293 cells) = molecular target: T2, hMC3-R (HEK-293 cells) (Homo sapiens, UniProt P41968); test: cAMP functional assay for agonist/antagonist status, MC3-R; format: cell-based; conditions: for agonist/antagonist status as to MC3-R: cAMP assay; for EC50: cAMP accumulation; for efficacy relative to NDP-α-MSH, MC3-R: cAMP response ratio to NDP-α-MSH
T2 construct: expressed in transfected cells; host or cells: HEK-293
T2 sequence (P41968 whole entry): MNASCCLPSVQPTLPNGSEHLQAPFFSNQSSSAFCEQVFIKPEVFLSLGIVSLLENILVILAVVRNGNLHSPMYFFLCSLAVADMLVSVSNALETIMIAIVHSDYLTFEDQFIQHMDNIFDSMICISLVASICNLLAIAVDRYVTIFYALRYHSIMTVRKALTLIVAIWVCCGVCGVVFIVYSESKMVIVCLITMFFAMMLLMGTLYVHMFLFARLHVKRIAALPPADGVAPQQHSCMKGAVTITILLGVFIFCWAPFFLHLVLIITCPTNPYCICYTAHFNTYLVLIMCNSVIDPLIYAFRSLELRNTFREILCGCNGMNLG
Description: (§3) Functional evaluation of peptides at melanocortin receptors was performed by measuring the accumulation of intracellular cAMP in HEK-293 cells expressing hMC3-R, hMC4-R or hMC5-R, and in B-16 mouse melanoma cells expressing MC1-R. Cells suspended in Earle's Balanced Salt Solution containing 10 mM HEPES (pH 7.5), 5 mM MgCl2, 1 mM glutamine, 0.5% albumin and 0.3 mM 3-isobutyl-1-methyl-xanthine, a phosphodiesterase inhibitor, were plated in 96 well plates at a density of 0.5×10^5 cells per well. Cells were incubated with the test peptides in the presence or absence of NDP-α-MSH for 1 hour at 37° C. cAMP levels in the cell lysates were measured using an EIA kit (Amersham). Data analysis and EC50 values were determined using nonlinear regression analysis with Prism Graph-Pad software.
(§4) The agonist/antagonist status with respect to MC1-R, MC4-R and MC5-R of certain peptides of the invention was determined. Antagonistic activity was determined by measuring the inhibition of α-MSH-induced or NDP-α-MSH-induced cAMP levels following exposure to the peptides as in the preceding descriptions.

MC3-R [1] = molecular target: T3, MC3-R (Homo sapiens, UniProt P41968); test: Competitive inhibition binding assay using [I125]-NDP-α-MSH, hMC3-R; conditions: radioligand [I125]-NDP-α-MSH, HEK-293 membranes; read-out: Ki (NDP-α-MSH) MC3-R
T3 construct: expressed in transfected cells; host or cells: HEK-293
T3 sequence (P41968 whole entry): as above
Description: as §1, §2

MC4-R [2] = molecular target: T4, MC4-R (Homo sapiens, UniProt P32245); test: Competitive inhibition Ki (AgRP), MC4-R; format: binding; conditions: AgRP as competing ligand
T4 construct: expressed in transfected cells; host or cells: HEK-293
T4 sequence (P32245 whole entry): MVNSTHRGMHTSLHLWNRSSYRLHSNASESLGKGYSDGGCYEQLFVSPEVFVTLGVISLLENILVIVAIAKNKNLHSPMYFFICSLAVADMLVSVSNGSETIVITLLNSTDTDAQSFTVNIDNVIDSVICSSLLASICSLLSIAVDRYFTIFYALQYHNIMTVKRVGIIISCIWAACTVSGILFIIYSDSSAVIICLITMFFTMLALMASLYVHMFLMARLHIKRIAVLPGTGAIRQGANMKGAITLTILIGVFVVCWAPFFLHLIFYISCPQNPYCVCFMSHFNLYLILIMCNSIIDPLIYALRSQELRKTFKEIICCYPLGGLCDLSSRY

[3] = molecular target: T5, MC1-R (B-16 mouse melanoma cells) (Mus musculus, UniProt Q01727); test: cAMP functional assay for agonist/antagonist status, MC1-R; format: cell-based; conditions: for agonist/antagonist status as to MC1-R: cAMP assay; for EC50: cAMP accumulation; for efficacy relative to NDP-α-MSH, MC1-R: cAMP response ratio to NDP-α-MSH
T5 construct: B-16 mouse melanoma cells (containing MC1-R); endogenous in cells; host or cells: B-16 mouse melanoma cells
T5 sequence (Q01727 whole entry): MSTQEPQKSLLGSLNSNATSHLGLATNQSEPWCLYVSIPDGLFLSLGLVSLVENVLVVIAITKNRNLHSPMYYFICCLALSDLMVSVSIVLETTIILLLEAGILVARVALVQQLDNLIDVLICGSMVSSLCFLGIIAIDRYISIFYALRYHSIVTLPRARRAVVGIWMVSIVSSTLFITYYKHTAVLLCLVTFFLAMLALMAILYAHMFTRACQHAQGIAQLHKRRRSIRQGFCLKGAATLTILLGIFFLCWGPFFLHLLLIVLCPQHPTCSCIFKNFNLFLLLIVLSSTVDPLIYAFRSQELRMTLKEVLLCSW
Description: Data analysis and EC50 values were determined using nonlinear regression analysis with Prism Graph-Pad software.
The agonist/antagonist status with respect to MC1-R, MC4-R and MC5-R of certain peptides of the invention was determined.

MC4-R [4] = molecular target: T4, MC4-R; test: Competitive inhibition binding assay using [I125]-NDP-α-MSH, hMC4-R; conditions: radioligand [I125]-NDP-α-MSH, HEK-293 membranes; read-out: Ki (NDP-α-MSH) MC4-R
Description: as §1, §2

[5] = molecular target: T5, MC1-R (B-16 mouse melanoma cells); test: Competitive inhibition binding assay using [I125]-NDP-α-MSH, MC1-R; conditions: radioligand [I125]-NDP-α-MSH, B-16 mouse melanoma membranes
Description: The assay mixture was incubated for 60 minutes at 37° C., then filtered and the membranes washed three times with ice cold phosphate buffered saline. The filter was dried and counted in a gamma counter for remaining radioactivity bound to the membranes. […] Each assay was conducted in triplicate.

hMC4-R (HEK-293 cells) = molecular target: T6, hMC4-R (HEK-293 cells) (Homo sapiens, UniProt P32245); test: cAMP functional assay for agonist/antagonist status, MC4-R; format: cell-based; conditions: for EC50: cAMP accumulation; for agonist/antagonist status as to MC4-R: cAMP assay; for efficacy relative to NDP-α-MSH, MC4-R: cAMP response ratio to NDP-α-MSH
T6 construct: expressed in transfected cells; host or cells: HEK-293
T6 sequence (P32245 whole entry): as the sequence (P32245 whole entry) above
Description: as §3, §4
Evaluation of the molecules to elicit a functional response in HEK-293 cells expressing hMC4-R for agonistic activity was done by measuring the accumulation of intracellular cAMP following treatment. Confluent HEK-293 cells over-expressing MC4-R receptors were detached by enzyme free cell suspension buffer. Cells were suspended in Earle's Balanced Salt Solution containing 10 mM HEPES (pH 7.5), 1 mM MgCl2, 1 mM glutamine, 0.5% albumin and 0.3 mM 3-isobutyl-1-methyl-[…]. The cells were plated in a 96 well plate at a density of 0.5×10^5 cells per well and pre-incubated for 60 minutes. The cells were then challenged with the test peptides dissolved in dimethylsulfoxide (DMSO) at a concentration range of 0.05-5000 nM in a total assay volume of 200 μL for 1 hour at 37° C. The concentration of DMSO was held at 1% in the assay mixture. NDP-α-MSH was used as the reference agonist. At the end of the incubation period the cells were disrupted by the addition of 50 μL lysis buffer from the cAMP EIA kit (Amersham). Complete rupture of the cells was ensured by pipetting the cells. cAMP levels in the cell lysates were measured after appropriate dilution using the EIA kit (Amersham) method. Data analysis and EC50 values were determined by using nonlinear regression analysis with the Prism Graph-Pad software.

MC3-R [6] = molecular target: T3, MC3-R; test: Competitive inhibition Ki (AgRP), MC3-R; format: binding; conditions: AgRP as competing ligand
Description: as §2

male Sprague-Dawley rats = test: Penile erection induction in male rats; format: in vivo, rat; conditions: 1000 μg/kg IV, groups of 6 rats, one hour observation
Description: The ability of peptides to induce penile erection (PE) in male rats was evaluated with selected peptides. Male Sprague-Dawley rats weighing 200-250 g were kept on a 12 hour on/off light cycle with food and water ad libitum. All behavioral studies were performed between 10 a.m. and 5 p.m. Groups of 4-8 rats were administered peptides at a variety of doses via an intravenous (IV) route, and may alternatively be administered peptide by an intracerebroventricular (ICV) route. Immediately after treatment, rats were placed into individual polystyrene cages (27 cm long, 16 cm wide, and 25 cm high) for behavioral observation. […] For rats administered peptide by an ICV routes, rats are observed for two hours.
Selected peptides were tested as in Example 5. Peptide was administered by IV routes, and used at dose levels ranging from 1 μg/kg to 1000 μg/kg.

| Structure (SMILES) | Ki (hMC5-R) [nM] | agonist/antagonist status as to MC3-R (hMC3-R (HEK-293 cells)) | Ki (MC3-R [1]) [nM] | Ki (MC4-R [2]) [nM] | agonist/antagonist status as to MC1-R [3] | Ki (MC4-R [4]) [nM] | Ki [5] [nM] | EC50 (hMC4-R (HEK-293 cells)) [nM] | agonist/antagonist status as to MC4-R (hMC4-R (HEK-293 cells)) | efficacy relative to NDP-α-MSH, MC4-R (hMC4-R (HEK-293 cells)) | Ki (MC3-R [6]) [µM] | EC50 (hMC3-R (HEK-293 cells)) [nM] | efficacy relative to NDP-α-MSH, MC3-R (hMC3-R (HEK-293 cells)) | EC50 [3] [nM] | efficacy relative to NDP-α-MSH, MC1-R [3] | rats exhibiting at least one PE (male Sprague-Dawley rats) [%] |
| --- | --- | --- | --- | --- | --- | --- | --- | --- | --- | --- | --- | --- | --- | --- | --- | --- |
| CCNC(=O)[C@@H]1CCCCNC(=O)C[C@H](NC(C)=O)C(=O)N[C@@H](Cc2c[nH]c3ccccc23)C(=O)N[C@H](Cc2ccccc2)C(=O)N[C@@H](CCCNC(=N)N)C(=O)N[C@@H](Cc2cccc3ccccc23)C(=O)N1 [Example 14, Ac-cyclo(-Asp-Trp-D-Phe-Arg-Nal 1-Lys)-NH—CH2—CH3] (Ac-DW[dF]R[1Nal]K-NHEt; lactam 1-6 (inferred)) | > 2000 | inactive | 886 | 71 | inactive | 45 | 166 | 698 | agonist (response ratio compared to NDP-α-MSH of 0.7 and above were classified as full agonists) | 0.7 | > 10 | – | – | – | – | – |
| CC(=O)N[C@H]1CC(=O)NCCCC[C@@H](C(=O)N(C)C)NC(=O)[C@H](Cc2cccc3ccccc23)NC(=O)[C@H](CCCNC(=N)N)NC(=O)[C@@H](Cc2ccccc2)NC(=O)[C@H](Cc2c[nH]c3ccccc23)NC1=O [Example 15, Ac-cyclo(-Asp-Trp-D-Phe-Arg-Nal 1-Lys)-N(CH3)2] (Ac-DW[dF]R[1Nal]K-NMe2; lactam 1-6 (inferred)) | 549 | inactive | 964 | 233 | inactive | 122 | 215 | 1540 | agonist (response ratio compared to NDP-α-MSH of 0.7 and above were classified as full agonists) | 0.9 | > 3 | – | – | – | – | – |
| CCNC(=O)[C@@H]1CCCCNC(=O)C[C@H](NC(C)=O)C(=O)N[C@@H](Cc2c[nH]cn2)C(=O)N[C@H](Cc2ccccc2)C(=O)N[C@@H](CCCNC(=N)N)C(=O)N[C@@H](Cc2cccc3ccccc23)C(=O)N1 [Example 16, Ac-cyclo(-Asp-His-D-Phe-Arg-Nal 1-Lys)-NH—CH2—CH3] (Ac-DH[dF]R[1Nal]K-NHEt; lactam 1-6 (inferred)) | 937 | agonist (response ratio compared to NDP-α-MSH of 0.7 and above were classified as full agonists) | 462 | 284 | agonist (response ratio compared to NDP-α-MSH of 0.7 and above were classified as full agonists) | 157 | 18 | 500 | agonist (response ratio compared to NDP-α-MSH of 0.7 and above were classified as full agonists) | 1.1 | > 2 | 6210 | 0.8 | 6410 | 0.9 | – |
| CCCC[C@H](NC(C)=O)C(=O)N[C@H]1CC(=O)NCCCC[C@@H](C(=O)NCC)NC(=O)[C@H](Cc2cccc3ccccc23)NC(=O)[C@H](CCCNC(=N)N)NC(=O)[C@@H](Cc2ccccc2)NC(=O)[C@H](Cc2c[nH]c3ccccc23)NC1=O [Example 18, Ac-Nle-cyclo(-Asp-Trp-D-Phe-Arg-Nal 1-Lys)-NH—CH2—CH3] (Ac-[Nle]DW[dF]R[1Nal]K-NHEt; lactam 2-7 (inferred)) | – | partial agonist (Peptides with a ratio from 0.1 to 0.7 were classified as partial agonists) | – | 26 | partial agonist (Peptides with a ratio from 0.1 to 0.7 were classified as partial agonists) | – | 3 | – | partial agonist (Peptides with a ratio from 0.1 to 0.7 were classified as partial agonists) | 0.6 | – | 1820 | 0.2 | 397 | 0.3 | – |
| CC(=O)N[C@H]1CC(=O)NCCCC[C@@H](C(=O)N(C)C)NC(=O)[C@H](Cc2c[nH]c3ccccc23)NC(=O)[C@H](CCCNC(=N)N)NC(=O)[C@@H](Cc2ccccc2)NC(=O)[C@H](Cc2c[nH]cn2)NC1=O [Example 13, Ac-cyclo(-Asp-His-D-Phe-Arg-Trp-Lys)-N(CH3)2] | > 1000 | agonist (response ratio compared to NDP-α-MSH of 0.7 and above were classified as full agonists) | 154 | 18 | agonist (response ratio compared to NDP-α-MSH of 0.7 and above were classified as full agonists) | 12 | 2 | 5 | partial agonist (Peptides with a ratio from 0.1 to 0.7 were classified as partial agonists) | 0.6 | – | 1250 | 1.3 | 151 | 0.7 | 100 |
| CC(=O)N[C@H]1CC(=O)NCCCC[C@@H](C(=O)N(C)C)NC(=O)[C@H](Cc2cccc3ccccc23)NC(=O)[C@H](CCCNC(=N)N)NC(=O)[C@@H](Cc2ccccc2)NC(=O)[C@H](Cc2c[nH]cn2)NC1=O [Example 17, Ac-cyclo(-Asp-His-D-Phe-Arg-Nal 1-Lys)-N(CH3)2] (Ac-DH[dF]R[1Nal]K-NMe2; lactam 1-6 (inferred)) | > 10000 | partial agonist (Peptides with a ratio from 0.1 to 0.7 were classified as partial agonists) | > 10000 | – | agonist (response ratio compared to NDP-α-MSH of 0.7 and above were classified as full agonists) | 92 | 40 | 91 | agonist (response ratio compared to NDP-α-MSH of 0.7 and above were classified as full agonists) | 0.93 | – | > 1000 | 0.4 | 2360 | 1.0 | 100 |
